Results reported in patent publication US20260125382A1, “COMPOUNDS FOR INHIBITING OR DEGRADING CDK2 AND/OR CDK9 AND MEDICINAL USE THEREOF” (KOREA RESEARCH INSTITUTE OF CHEMICAL TECHNOLOGY, priority 2022, published 2026).

Legend:
CDK2 = target: T1, CDK2 (Homo sapiens, UniProt P24941); assay: CDK protein degradation activity (Western blotting), CDK2; format: cell-based; details: MDA-MB-231 cells, 16 hours, Western blot
T1 construct: endogenous in cells; host or cells: MDA-MB-231
Summary of the method: (§1)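 MDA-MB-231 cells treated 16 h with compound at 100 nM, 1 μM or 10 μM, with DMSO as control. Lysates run on SDS-PAGE and immunoblotted for CDK2, CDK9 and tubulin; band levels quantified by densitometry.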

CDK9 = target: T2, CDK9 (Homo sapiens, UniProt P50750); assay: CDK protein degradation activity (Western blotting), CDK9; format: cell-based; details: MDA-MB-231 cells, 16 hours, Western blot
T2 construct: endogenous in cells; host or cells: MDA-MB-231
T2 sequence (P50750 whole entry): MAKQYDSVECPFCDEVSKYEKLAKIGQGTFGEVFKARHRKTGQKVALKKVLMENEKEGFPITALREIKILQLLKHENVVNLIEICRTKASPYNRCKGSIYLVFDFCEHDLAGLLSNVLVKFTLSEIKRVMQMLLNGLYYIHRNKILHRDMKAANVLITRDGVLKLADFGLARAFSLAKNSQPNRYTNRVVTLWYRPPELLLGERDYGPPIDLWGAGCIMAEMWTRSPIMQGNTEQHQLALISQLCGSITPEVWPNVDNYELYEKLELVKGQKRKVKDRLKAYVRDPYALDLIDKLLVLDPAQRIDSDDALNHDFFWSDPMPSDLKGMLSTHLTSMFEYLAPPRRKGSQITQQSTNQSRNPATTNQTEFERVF
Summary of the method: as §1

SMILES | Enzyme degradation CDK2 (% remaining) @ 0.1 μM (CDK2) | Enzyme degradation CDK2 (% remaining) @ 1 μM (CDK2) | Enzyme degradation CDK2 (% remaining) @ 10 μM (CDK2) | Enzyme degradation CDK9 (% remaining) @ 0.1 μM (CDK9) | Enzyme degradation CDK9 (% remaining) @ 1 μM (CDK9) | Enzyme degradation CDK9 (% remaining) @ 10 μM (CDK9)
Cc1cccc(C(=O)NC2CC(n3cnc4c(NCCC5CCN(CC6CCN(c7ccc8c(c7)C(=O)N([C@H]7CCC(=O)NC7=O)C8=O)CC6)CC5)ncnc43)C2)n1 (stereo partly drawn) [Compound 308, N-((1s,3s)-3-(6-((2-(1-((1-(2-(2,6-dioxopiperidin-3-yl)-1,3-dioxoisoindolin-5-yl)piperidin-4-yl)methyl)piperidin-4-yl)ethyl)amino)-9H-purin-9-yl)cyclobutyl)-6-methylpicolinamide] | 40% | 30% | 30% | 20% | 0% | 20%
Cc1cccc(C(=O)NC2CC(n3cnc4c(NCCC5CCN(CC6CCN(C(=O)C7CN(c8ccc9c(c8)C(=O)N([C@H]8CCC(=O)NC8=O)C9=O)C7)CC6)CC5)ncnc43)C2)n1 (stereo partly drawn) [Compound 309, N-((1s,3s)-3-(6-((2-(1-((1-(1-(2-(2,6-dioxopiperidin-3-yl)-1,3-dioxoisoindolin-5-yl)azetidin-3-carbonyl)piperidin-4-yl)methyl)piperidin-4-yl)ethyl)amino)-9H-purin-9-yl)cyclobutyl)-6-methylpicolinamide] | 90% | 80% | 100% | 0/0/0% | 0/0/0% | 0/0/0%
O=C1CC[C@H](N2C(=O)c3cccc(NCC(=O)N4CCN(CC5CCN(c6ccc(Nc7ncnc8c7ncn8[C@H]7C[C@@H](NC(=O)c8c(Cl)cccc8Cl)C7)cc6)CC5)CC4)c3C2=O)C(=O)N1 [Compound 311, 2,6-dichloro-N-((1s,3s)-3-(6-((4-(4-((4-((2-(2,6-dioxopiperidin-3-yl)-1,3-dioxoisoindolin-4-yl)glycyl)piperazin-1-yl)methyl)piperidin-1-yl)phenyl)amino)-9H-purin-9-yl)cyclobutyl)benzamide] | 10% | 20% | 20% | 10% | 0% | 0%
O=C1CC[C@H](N2C(=O)c3ccc(NCC(=O)N4CCN(CC5CCN(c6ccc(Nc7ncnc8c7ncn8[C@H]7C[C@@H](NC(=O)c8c(Cl)cccc8Cl)C7)cc6)CC5)CC4)cc3C2=O)C(=O)N1 [Compound 312, 2,6-dichloro-N-((1s,3s)-3-(6-((4-(4-((4-((2-(2,6-dioxopiperidin-3-yl)-1,3-dioxoisoindolin-5-yl)glycyl)piperazin-1-yl)methyl)piperidin-1-yl)phenyl)amino)-9H-purin-9-yl)cyclobutyl)benzamide] | 10/10/10% | 10/10/10% | 10/10/10% | 0/0/0% | 0/0/0% | 0/0/0%
O=C1CC[C@H](n2nnc3ccc(N4CCC5(CC4)CC(N4CCN(c6ccc(Nc7ncnc8c7ncn8[C@H]7C[C@@H](NC(=O)Cc8ccccc8)C7)cc6)CC4)C5)cc3c2=O)C(=O)N1 [Compound 314, N-((1s,3s)-3-(6-((4-(4-(7-(3-(2,6-dioxopiperidin-3-yl)-4-oxo-3,4-dihydrobenzo[d][1,2,3]triazin-6-yl)-7-azaspiro[3.5]nonan-2-yl)piperazin-1-yl)phenyl)amino)-9H-purin-9-yl)cyclobutyl)-2-phenylacetamide] | 10/10/10% | 10/10/10% | 10/10/10% | 10% | 0% | 0%

Results, then the compound that gave them:

Enzyme degradation CDK2 (% remaining) @ 0.1 μM (CDK2) | Enzyme degradation CDK2 (% remaining) @ 1 μM (CDK2) | Enzyme degradation CDK2 (% remaining) @ 10 μM (CDK2) | Enzyme degradation CDK9 (% remaining) @ 0.1 μM (CDK9) | Enzyme degradation CDK9 (% remaining) @ 1 μM (CDK9) | Enzyme degradation CDK9 (% remaining) @ 10 μM (CDK9) | SMILES
10% | 20% | 30% | 0/0/0% | 0/0/0% | 0/0/0% | O=C1CC[C@H](N2C(=O)c3ccc(N4CCC5(CC4)CC(N4CCN(c6ccc(Nc7ncnc8c7ncn8C7CC(NC(=O)c8c(Cl)cccc8Cl)C7)cc6)CC4)C5)cc3C2=O)C(=O)N1 (stereo partly drawn) [Compound 315, 2,6-dichloro-N-((1s,3s)-3-(6-((4-(4-(7-(2-(2,6-dioxopiperidin-3-yl)-1,3-dioxoisoindolin-5-yl)-7-azaspiro[3.5]nonan-2-yl)piperazin-1-yl)phenyl)amino)-9H-purin-9-yl)cyclobutyl)benzamide]
30% | 30% | 50% | 0/0/0% | 0/0/0% | 0/0/0% | O=C1CCC(N2C(=O)c3cc(F)c(N4CCC5(CC4)CC(N4CCN(c6ccc(Nc7ncnc8c7ncn8[C@H]7C[C@@H](NC(=O)c8c(Cl)cccc8Cl)C7)cc6)CC4)C5)cc3C2=O)C(=O)N1 (stereo partly drawn) [Compound 316, 2,6-dichloro-N-((1s,3s)-3-(6-((4-(4-(7-(2-(2,6-dioxopiperidin-3-yl)-6-fluoro-1,3-dioxoisoindolin-5-yl)-7-azaspiro[3.5]nonan-2-yl)piperazin-1-yl)phenyl)amino)-9H-purin-9-yl)cyclobutyl)benzamide]
10/10/10% | 10/10/10% | 10/10/10% | 0/0/0% | 0/0/0% | 0/0/0% | O=C1CC[C@H](n2nnc3ccc(N4CCC5(CC4)CC(N4CCN(c6ccc(Nc7ncnc8c7ncn8[C@H]7C[C@@H](NC(=O)c8c(Cl)cccc8Cl)C7)cc6)CC4)C5)cc3c2=O)C(=O)N1 [Compound 317, 2,6-dichloro-N-((1s,3s)-3-(6-((4-(4-(7-(3-(2,6-dioxopiperidin-3-yl)-4-oxo-3,4-dihydrobenzo[d][1,2,3]triazin-6-yl)-7-azaspiro[3.5]nonan-2-yl)piperazin-1-yl)phenyl)amino)-9H-purin-9-yl)cyclobutyl)benzamide]
20% | 20% | 40% | 0/0/0% | 0/0/0% | 0/0/0% | O=C1CC[C@H](N2C(=O)c3ccc(NCC(=O)N4CCC5(CC4)CC(N4CCN(c6ccc(Nc7ncnc8c7ncn8C7CC(NC(=O)c8c(Cl)cccc8Cl)C7)cc6)CC4)C5)cc3C2=O)C(=O)N1 (stereo partly drawn) [Compound 318, 2,6-dichloro-N-((1s,3s)-3-(6-((4-(4-(7-((2-(2,6-dioxopiperidin-3-yl)-1,3-dioxoisoindolin-5-yl)glycyl)-7-azaspiro[3.5]nonan-2-yl)piperazin-1-yl)phenyl)amino)-9H-purin-9-yl)cyclobutyl)benzamide]
